Data set [1] concerns Nc1nc2c(ncn2[C@@H]2O[C@H](COP(=O)(O)O)[C@@H](O)[C@H]2O)c(=O)[nH]1. Put plainly: purified protein, by the assay type. Particulars: 25.0 °C.
In data set [2] the target is T1, L. monocytogenes GMK (Listeria monocytogenes serovar 1/2a, UniProt Q8Y672).
Data set [3] has as its target T2, S. coelicolor GMK (Streptomyces coelicolor, UniProt Q9KXS0).
For data set [4], the target named is T3, B. subtilis GMK (Bacillus subtilis, UniProt O34328).
Another data set concerns the target E. faecalis GMK-1 (Enterococcus faecalis, UniProt Q82ZD5). The data set is classed as biochemical.
Data set [5] concerns the target T2, S. coelicolor GMK. The data set is described as follows: biochemical.
In data set [6] the test system is Neisseria meningitidis GMK. The data set is classed as biochemical.
In data set [7] the target is T4, B. anthracis GMK (Bacillus anthracis, UniProt Q81WG7).
For the next data set, the target named is T. thermophilus IMPDH. Conditions: cited from earlier work.
In data set [8] the test system is Chimeric S. aureus GMKs with E. coli lid domains. The data set is classed as biochemical.
The target of data set [9] is T5, S. mutans GMK (Streptococcus mutans serotype c, UniProt Q8DVK6). The data set is described as follows: biochemical.
Data set [10] relates to chimeric E. coli GMKs with S. aureus lid domains. The data set is classed as biochemical.
Data set [11] has as its target T6, C. gilvus GMK (Cellulomonas gilvus, UniProt F8A6C8).
Data set [12] has as its target T7, S. meliloti GMK (Sinorhizobium meliloti, UniProt Q92QZ2).
The target in data set [13] is T1, L. monocytogenes GMK. The data set is described as follows: biochemical.
In data set [14] the target is T8, E. coli GMK (Escherichia coli, UniProt P60546). The data set is classed as binding.
In data set [15] the target is T9, E. faecalis GMK-2 (Enterococcus faecalis, UniProt Q831B6). The data set is classed as biochemical.
The target of data set [16] is T7, S. meliloti GMK. The data set is described as follows: biochemical.
For another data set, the target named is B. subtilis GMK Y77F (Bacillus subtilis, UniProt O34328, Y77F). The data set is classed as biochemical.
Data set [17] has as its target T8, E. coli GMK. The data set is classed as biochemical.
For data set [18], the target named is T10, D. radiodurans GMK (Deinococcus radiodurans, UniProt Q9RS38).
The test system of data set [19] is Yersinia enterocolitica GMK. The data set is classed as biochemical.
Data set [20] deals with T4, B. anthracis GMK. Put plainly: biochemical.
The target of data set [21] is T10, D. radiodurans GMK. Put plainly: biochemical.
The target in data set [22] is T11, T. thermophilus GMK (Thermus thermophilus, UniProt Q5SI18).
For data set [23], the system named is GMK of Rhodobacter sphaeroides. The data set is classed as biochemical.
The test system of data set [24] is Klebsiella pneumoniae GMK. The data set is classed as biochemical.
In another data set the test system is Pseudomonas syringae GMK. The data set is classed as biochemical.
Data set [25] deals with T9, E. faecalis GMK-2. Conditions: cited from earlier work.
The target of data set [26] is T3, B. subtilis GMK. The data set is described as follows: biochemical.
Another data set deals with Coxiella burnetii GMK (Coxiella burnetii, UniProt Q83EL7). The data set is classed as biochemical.
For data set [27], the target named is T11, T. thermophilus GMK. The data set is described as follows: biochemical.
A further data set addresses A. tumefaciens GMK (Agrobacterium tumefaciens, UniProt Q8UGD7). The data set is classed as biochemical.
The target in data set [28] is T6, C. gilvus GMK. The data set is described as follows: biochemical.
Data set [29] has as its target T3, B. subtilis GMK. The data set is classed as binding.
A further data set deals with M. tuberculosis GMK (Mycobacterium tuberculosis, UniProt P9WKE9). The data set is classed as biochemical.
The target in data set [30] is T12, S. aureus GMK (Staphylococcus aureus, UniProt P99176). The data set is described as follows: biochemical.
In data set [31] the target is T12, S. aureus GMK.
Data set [32] has as its target T5, S. mutans GMK.

Entries after “also recorded” stand apart in the source; their conditions may differ.

Consider “B. subtilis GMK (Bacillus subtilis subsp. subtilis str. 168)”, for which, in data set [1], the Km – broadly, the substrate concentration at which the rate is half of its maximum – was determined as 24.6 ± 3.4 µM and the kcat (commonly the maximal rate divided by the concentration of active sites) was 23 ± 1 s⁻¹.

As for “S. coelicolor GMK (Streptomyces coelicolor A3(2))”, in data set [1], the Km worked out at 29.7 ± 3.4 µM and the kcat turned out to be 25.5 ± 0.7 s⁻¹.

Regarding `Nc1nc2c(ncn2[C@@H]2O[C@H](COP(=O)(O)OP(=O)(O)OP(=O)(O)O)[C@@H](OP(=O)(O)OP(=O)(O)O)[C@H]2O)c(=O)[nH]1` [pppGpp, guanosine pentaphosphate], the Mode of inhibition entry was “Comp” at L. monocytogenes GMK [2]; “competitively inhibited and Comp” on S. coelicolor GMK [3]; “Comp” at B. subtilis GMK [4]; “Comp” at E. faecalis GMK-1; “Comp” at B. anthracis GMK [7]; “competitively inhibited and Comp” on C. gilvus GMK [11]. For the same compound, the Mode of inhibition result on S. meliloti GMK [12] is “modestly and competitively inhibited and Comp”; at E. faecalis GMK-2 [15], “noncompetitively inhibited; also recorded: Noncomp”; at D. radiodurans GMK [18] it was “strongly and competitively inhibited and Comp”; on T. thermophilus GMK [22], “strongly and competitively inhibited and Comp”; on A. tumefaciens GMK it was “modestly and competitively inhibited and Comp”; on S. aureus GMK [31], “competitively inhibits and Comp”. For the same compound, the Mode of inhibition entry at S. mutans GMK [32] was “Comp”. Besides, the Ki (as a rule, a measure of affinity in units of concentration, obtained from inhibition or displacement) at S. coelicolor GMK [5] was 61.5 ± 9.6 µM; at T. thermophilus IMPDH, approximately 11 µM; at S. mutans GMK [9] it was 16.6 ± 2.4 µM; on L. monocytogenes GMK [13], 12 ± 1.1 µM; on E. faecalis GMK-2 [15] it was 355 ± 26 µM; on S. meliloti GMK [16], 81.6 ± 11.8 µM. The Ki at B. anthracis GMK [20] was 42.5 ± 7.3 µM; on D. radiodurans GMK [21], 1.6 ± 0.4 µM; at T. thermophilus GMK [27], 2.9 ± 0.5 µM; at A. tumefaciens GMK, 53.5 ± 8.9 µM; at C. gilvus GMK [28], 1.7 ± 0.5 µM; at S. aureus GMK [30], 7 µM. Moreover, the “Inhibition of GMK activity (sensitivity)” value in data set [6] is recorded as “completely resistant”; in data set [8], “more resistant”; in data set [10], “still resistant”; on E. coli GMK [17] it was “completely resistant”; in [19], “completely resistant”; in data set [23], “resistant”. Besides, the “Inhibition of GMK activity (sensitivity)” value in data set [24] was “completely resistant”; in the data set on Pseudomonas syringae GMK it was “completely resistant”; on Coxiella burnetii GMK, “completely resistant”; on M. tuberculosis GMK, “insensitive”. Further, the IC50 (as a rule, the concentration at which inhibition is half-maximal) on S. mutans GMK [9] is 9 to 24 µM; against L. monocytogenes GMK [13] it was 9 to 24 µM; on B. anthracis GMK [20] it was approximately 120 µM; at E. faecalis GMK-2 [25] it was approximately 460 µM; against B. subtilis GMK [26] it was approximately 16 µM; on S. aureus GMK [30] it was 9 to 24 µM. Moreover, the “Binding by ITC” value on E. coli GMK [14] is “not observed”. On B. subtilis GMK Y77F, the “Ki of the variant (in words)” value was “increased Ki to a level comparable to that of B. anthracis GMK”. In addition, the “Complex formation (binding) by ITC” value at B. subtilis GMK [29] is recorded as “detected”.

With “L. monocytogenes GMK (Listeria monocytogenes EGD-e)”, in data set [1], the Km is 84.7 ± 14.2 µM and the kcat was 54.9 ± 5.6 s⁻¹.

“S. aureus GMK (Staphylococcus aureus subsp. aureus N315)”: in data set [1], the Km was determined as 35.1 ± 7.1 µM and the kcat is 72.9 ± 7.2 s⁻¹.

For the compound “C. gilvus GMK (Cellulomonas gilvus ATCC 13127)”, in data set [1], the Km worked out at 22.5 ± 7.3 µM and the kcat stood at 25 ± 2.7 s⁻¹.

Take “T. thermophilus GMK (Thermus thermophilus HB8)”: in data set [1], the Km turned out to be 17.5 ± 4.1 µM and the kcat worked out at 4.8 ± 0.4 s⁻¹.

Regarding “S. meliloti GMK (Sinorhizobium meliloti 1021)”, in data set [1], the Km came to 14.1 ± 1.3 µM and the kcat was 19.5 ± 0.3 s⁻¹.

In the case of “D. radiodurans GMK (Deinococcus radiodurans R1 = ATCC 13939 = DSM 20539)”, in data set [1], the Michaelis constant (Km) was 17.8 ± 5.4 µM and the kcat was 44.5 ± 4.4 s⁻¹.

Regarding `Nc1nc2c(ncn2[C@@H]2O[C@H](COP(=O)(O)OP(=O)(O)O)[C@@H](OP(=O)(O)OP(=O)(O)O)[C@H]2O)c(=O)[nH]1` [ppGpp, guanosine tetraphosphate], the “Inhibition of GMK activity (sensitivity)” value on E. coli GMK [17] was “resistant”. Besides, the Ki at S. aureus GMK [30] is 8.2 µM. For the same compound, the Mode of inhibition entry on S. aureus GMK [31] is “competitively inhibits”.

With “S. mutans GMK (Streptococcus mutans UA159)”, in data set [1], the Km came out at 147.4 ± 68.6 µM and the kcat is 68.9 ± 24.8 s⁻¹.

As for B. anthracis GMK (Bacillus anthracis), in data set [1], the Michaelis constant (Km) stood at 78.1 ± 39.7 µM and the kcat worked out at 57.6 ± 21.9 s⁻¹.

Source of the values: publication PMC4336630 (Molecular cell, 2015).
